Measurements taken from ChEMBL document CHEMBL4024701, “Optimization and Structure-Activity Relationships of Phosphinic Pseudotripeptide Inhibitors of Aminopeptidases That Generate Antigenic Peptides” (J Med Chem, 2016).

Tests used:
[1] = biological target: Leucyl-cystinyl aminopeptidase (Homo sapiens, UniProt Q9UIQ6); assay: Inhibition of IRAP (unknown origin) expressed in HEK 293S GnTI(-) cells by in vitro fluorimetric assay; format: cell-based
[2] = biological target: Endoplasmic reticulum aminopeptidase 1 (Homo sapiens, UniProt Q9NZ08); assay: Inhibition of ERAP1 (unknown origin) expressed in Hi5 cells by in vitro fluorimetric assay
Sequence of Endoplasmic reticulum aminopeptidase 1 (Q9NZ08 whole entry): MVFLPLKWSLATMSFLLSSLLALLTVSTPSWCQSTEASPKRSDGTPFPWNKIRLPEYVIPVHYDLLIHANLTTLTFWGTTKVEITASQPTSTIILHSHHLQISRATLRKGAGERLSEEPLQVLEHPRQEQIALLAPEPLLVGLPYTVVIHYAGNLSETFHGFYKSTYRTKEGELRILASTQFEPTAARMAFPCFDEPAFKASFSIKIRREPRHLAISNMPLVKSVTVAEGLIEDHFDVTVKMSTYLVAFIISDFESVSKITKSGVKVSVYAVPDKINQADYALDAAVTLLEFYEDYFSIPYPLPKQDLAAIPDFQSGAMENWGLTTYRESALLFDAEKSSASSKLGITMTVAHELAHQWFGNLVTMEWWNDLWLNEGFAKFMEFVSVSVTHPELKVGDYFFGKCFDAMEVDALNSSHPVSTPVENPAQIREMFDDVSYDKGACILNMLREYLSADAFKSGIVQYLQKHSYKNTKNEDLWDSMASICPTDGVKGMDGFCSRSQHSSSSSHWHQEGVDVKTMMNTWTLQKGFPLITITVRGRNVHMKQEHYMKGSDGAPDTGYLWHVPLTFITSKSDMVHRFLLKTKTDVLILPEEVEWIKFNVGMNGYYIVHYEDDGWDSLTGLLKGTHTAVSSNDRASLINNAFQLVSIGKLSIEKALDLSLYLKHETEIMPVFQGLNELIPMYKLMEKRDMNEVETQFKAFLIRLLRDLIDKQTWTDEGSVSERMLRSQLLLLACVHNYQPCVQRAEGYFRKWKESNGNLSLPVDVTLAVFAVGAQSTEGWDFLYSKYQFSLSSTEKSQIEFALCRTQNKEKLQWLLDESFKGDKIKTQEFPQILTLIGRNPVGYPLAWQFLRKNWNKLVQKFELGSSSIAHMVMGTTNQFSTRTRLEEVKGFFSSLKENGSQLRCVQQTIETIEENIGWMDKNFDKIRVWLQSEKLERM

[3] = biological target: T1, Leucyl-cystinyl aminopeptidase (Mus musculus) (UniProt Q8C129); assay: (§1) Inhibition of IRAP in C57Bl/6 mouse CD11b-positive dendritic cells assessed as reduction of IRAP-dependent cross-presentation activity by measuring IL2 level in CD8+ T-cells isolated from lymph nodes of Rag-1-/- C57Bl/6 OT-I mouse at 3 to 3333 nM pre-incubated for 60 mins followed by addition of ovalbumin measured after 6 hrs by sandwich ELISA
T1 sequence (whole entry): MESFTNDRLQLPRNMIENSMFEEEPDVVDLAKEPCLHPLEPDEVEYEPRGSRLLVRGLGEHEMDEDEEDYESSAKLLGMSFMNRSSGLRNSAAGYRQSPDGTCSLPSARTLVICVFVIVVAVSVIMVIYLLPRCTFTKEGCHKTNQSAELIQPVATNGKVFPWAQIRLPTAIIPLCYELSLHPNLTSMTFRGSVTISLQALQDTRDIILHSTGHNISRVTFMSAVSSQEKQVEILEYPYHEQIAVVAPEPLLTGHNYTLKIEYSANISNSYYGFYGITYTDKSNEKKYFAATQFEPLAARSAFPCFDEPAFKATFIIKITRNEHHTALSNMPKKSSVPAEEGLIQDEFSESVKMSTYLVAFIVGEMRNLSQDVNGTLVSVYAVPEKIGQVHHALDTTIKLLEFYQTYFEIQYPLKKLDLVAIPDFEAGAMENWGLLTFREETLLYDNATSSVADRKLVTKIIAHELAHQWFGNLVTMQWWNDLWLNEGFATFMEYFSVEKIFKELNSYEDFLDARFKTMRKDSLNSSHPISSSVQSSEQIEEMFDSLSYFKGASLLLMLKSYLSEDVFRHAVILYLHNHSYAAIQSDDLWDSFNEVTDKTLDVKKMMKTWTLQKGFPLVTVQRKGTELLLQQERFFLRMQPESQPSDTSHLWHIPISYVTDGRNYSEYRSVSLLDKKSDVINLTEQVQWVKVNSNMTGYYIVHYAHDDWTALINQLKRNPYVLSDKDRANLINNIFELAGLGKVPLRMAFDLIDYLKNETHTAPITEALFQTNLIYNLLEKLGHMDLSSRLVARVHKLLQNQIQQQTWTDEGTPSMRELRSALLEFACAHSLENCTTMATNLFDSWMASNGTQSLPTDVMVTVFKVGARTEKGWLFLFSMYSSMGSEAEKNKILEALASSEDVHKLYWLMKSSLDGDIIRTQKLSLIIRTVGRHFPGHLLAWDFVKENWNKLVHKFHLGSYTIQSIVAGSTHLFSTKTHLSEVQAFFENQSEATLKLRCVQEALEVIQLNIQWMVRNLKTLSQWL

[4] = Effect on cross-presentation activity of IRAP-/- knockdown C57Bl/6 mouse CD8alpha-positive dendritic cells assessed as IL2 level in CD8+ T-cells isolated from lymph nodes of Rag-1-/- C57Bl/6 OT-I mouse at 3.3 uM pre-incubated for 60 mins followed by addition of ovalbumin measured after 6 hrs by sandwich ELISA assay; conditions: cd8alpha-positive dendritic cell
[5] = (§2) Effect on cross-presentation activity of IRAP-/- knockdown C57Bl/6 mouse CD8alpha-positive T cells assessed as IL2 level in CD8+ T-cells isolated from lymph nodes of Rag-1-/- C57Bl/6 OT-I mouse at 3 to 1000 nmol/L pre-incubated for 60 mins followed by addition of ovalbumin measured after 6 hrs by sandwich ELISA assay; format: ADME, cell-based
[6] = biological target: T1, Leucyl-cystinyl aminopeptidase (Mus musculus); assay: as §1, with “CD8 alpha-positive” for “CD11b-positive dendritic”
[7] = as §2, with “CD11b-positive dendritic” for “CD8alpha-positive T”; format: ADME, cell-based; conditions: cd11b-positive dendritic cell
[8] = as §2, with “CD11b-positive dendritic” for “CD8alpha-positive T”, “3.3 uM” for “3 to 1000 nmol/L”; format: ADME, cell-based; conditions: cd11b-positive dendritic cell

Sequence of Leucyl-cystinyl aminopeptidase (Q9UIQ6 whole entry): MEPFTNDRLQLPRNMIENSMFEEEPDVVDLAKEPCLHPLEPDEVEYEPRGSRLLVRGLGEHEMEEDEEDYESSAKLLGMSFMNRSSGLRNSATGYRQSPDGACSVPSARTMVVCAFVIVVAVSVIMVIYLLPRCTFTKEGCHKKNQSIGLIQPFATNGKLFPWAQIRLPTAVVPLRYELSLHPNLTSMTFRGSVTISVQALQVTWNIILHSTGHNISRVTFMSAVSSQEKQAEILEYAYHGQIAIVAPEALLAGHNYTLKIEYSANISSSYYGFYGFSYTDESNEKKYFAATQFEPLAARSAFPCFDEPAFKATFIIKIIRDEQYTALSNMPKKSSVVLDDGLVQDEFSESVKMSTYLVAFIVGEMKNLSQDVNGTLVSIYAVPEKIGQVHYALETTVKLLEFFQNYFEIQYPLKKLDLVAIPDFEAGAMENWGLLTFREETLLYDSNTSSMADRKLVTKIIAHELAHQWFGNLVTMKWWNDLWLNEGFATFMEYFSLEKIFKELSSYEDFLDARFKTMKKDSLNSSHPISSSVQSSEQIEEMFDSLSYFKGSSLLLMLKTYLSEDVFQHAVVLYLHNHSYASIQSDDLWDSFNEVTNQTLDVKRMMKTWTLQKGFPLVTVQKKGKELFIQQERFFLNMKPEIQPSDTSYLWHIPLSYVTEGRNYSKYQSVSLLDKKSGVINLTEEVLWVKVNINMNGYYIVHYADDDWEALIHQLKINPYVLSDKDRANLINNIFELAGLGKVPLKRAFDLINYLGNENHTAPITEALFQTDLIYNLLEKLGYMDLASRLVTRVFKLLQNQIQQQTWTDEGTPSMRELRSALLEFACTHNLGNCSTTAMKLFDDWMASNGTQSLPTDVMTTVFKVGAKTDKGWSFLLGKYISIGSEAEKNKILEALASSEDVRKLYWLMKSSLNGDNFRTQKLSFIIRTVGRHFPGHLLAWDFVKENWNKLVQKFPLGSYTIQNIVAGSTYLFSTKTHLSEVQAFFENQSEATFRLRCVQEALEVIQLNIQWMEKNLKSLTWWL

## C#CC[C@H](CP(=O)(O)[C@@H](N)CCc1ccccc1)C(=O)N[C@@H](Cc1ccccc1)C(N)=O
[1]
  IC50: 0.002 µM

## NC(=O)[C@H](Cc1ccccc1)NC(=O)[C@@H](Cc1cc(-c2ccccc2)cc(-c2ccccc2)c1)CP(=O)(O)[C@@H](N)CCc1ccccc1
[2]
  IC50: > 100 µM

## NC(=O)[C@H](Cc1ccccc1)NC(=O)[C@H](CC(c1ccccc1)c1ccccc1)CP(=O)(O)[C@@H](N)CCc1ccccc1
[3]
  inhibition: Dose-dependent effect
[4]
  Activity: Toxic
[5]
  Activity: Non-Toxic
[6]
  inhibition: Dose-dependent effect
[7]
  Activity: Non-Toxic
[8]
  Activity: Toxic

## NC(=O)[C@H](Cc1ccccc1)NC(=O)[C@H](Cc1cc(-c2ccccc2)cc(-c2ccccc2)c1)CP(=O)(O)[C@@H](N)CCc1ccccc1
[2]
  IC50: > 35 µM
